Data taken from patent publication US20040049086A1, “Diphenol and process for producing the same” (priority 2001, published 2004).

melting point [°C] | SMILES
231 | Cc1cc(-c2ccc(-c3ccc(O)cc3)cc2)cc(C)c1O [Example 2 of Example C, 4-hydroxy-3″,5″-dimethyl-4″-hydroxy-p-terphenyl]
251.4 | Cc1cc(-c2ccc(-c3ccc(O)cc3)cc2)ccc1O [Example 1 of Example C, 4-hydroxy-3″-methyl-4″-hydroxy-p-terphenyl]
201 | Cc1cc(C2=CCC(c3ccc(O)cc3)CC2)ccc1O (stereo not drawn) [Example 2 of Example A, 1-(3-methyl-4-hydroxyphenyl)-4-(4-hydroxyphenyl)-1-cyclohexene]

Continued, compound first:

SMILES | melting point [°C]
CC(C)(C)c1cc(C2=CCC(c3ccc(O)cc3)CC2)ccc1O (stereo not drawn) [Example 4 of Example A, 1-(3-t-butyl-4-hydroxyphenyl)-4-(4-hydroxyphenyl)-1-cyclohexene] | 188
Cc1cc(C2CCC(c3ccc(O)cc3)CC2)ccc1O (stereo not drawn) [Example 1 of Example B, 4-(4′-(4″-hydroxyphenyl)cyclohexyl)-2-methyl-1-hydroxybenzene] | 159
Cc1cc(C2=CCC(c3ccc(O)cc3)CC2)cc(C)c1O (stereo not drawn) [Example 5 of Example A, 1-(3,5-dimethyl-4-hydroxyphenyl)-4-(4-hydroxyphenyl)-1-cyclohexene] | 224
